From US20250084056A1, “SUBSTITUTED OXOISOINDOLINYL PIPERIDINE-2,6-DIONE COMPOUNDS” (BRISTOL-MYERS SQUIBB COMPANY, priority 2023, published 2025)

Experiments:
Type in all cases: cell-based
Phospho-Rb (Ser807/811) = test: Phospho-Retinoblastoma (pRB) Cellular Assay; conditions: Homo sapiens, OVCAR-3, NIH OVCAR3 cells, 24 hours; for IC50: concentration giving 50% response; for Emax: maximum response, reference compound at 10 μM = 100%, read-out: pRB Ymax
In short: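 OVCAR3 cells seeded overnight, then dosed with serial dilutions for 24 h at 37° C. Lysed with kit mix plus phosphatase inhibitor, ≥4 h at room temperature, read on EnVision; 100% response set by reference compound at 10 μM, giving IC50 and Ymax.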

Cyclin E1 = Cyclin E1 (Homo sapiens, UniProt P24864+Q96SW2); test: Cyclin E1 Cellular Degradation Assay (MSD); parameters: endogenous in cells; host or cells: OVCAR3; conditions: for DC50 / Dmax: Cyclin E1 cellular degradation; for Dmax: maximum degradation; for Ratio of GSPT1 DC50/Cyclin E1 DC50: selectivity for degradation of Cyclin E1 over GSPT1
In short: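 OVCAR3 cells treated with compound for 24 h at 37 °C, lysed, and cyclin E1 measured by MSD sandwich immunoassay (rabbit capture, mouse detection anti-CCNE1). Reference degrader at […] defined 110% response; DC50 and Dmax derived from response.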

GSPT1 = GSPT1 (Homo sapiens, UniProt P15170+Q96SW2); test: GSPT1 Cellular Degradation Assay (DF15-GSPT1-ePL); parameters: expressed in transfected cells; conditions: DF15-GSPT1-ePL cells, 20 hours
In short: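 Human DF15 cells co-expressing a GSPT1–ePL fusion were treated with compound in RPMI 1640/10% FBS for 20 h at 37 °C. GSPT1 level was read by enzyme-fragment-complementation luminescence after 60 min with detection reagent. The reference degrader at […] defined 75% response; DC50 and Dmax were reported.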

Sequence of GSPT1 (P15170 whole entry, the tested form may be a part): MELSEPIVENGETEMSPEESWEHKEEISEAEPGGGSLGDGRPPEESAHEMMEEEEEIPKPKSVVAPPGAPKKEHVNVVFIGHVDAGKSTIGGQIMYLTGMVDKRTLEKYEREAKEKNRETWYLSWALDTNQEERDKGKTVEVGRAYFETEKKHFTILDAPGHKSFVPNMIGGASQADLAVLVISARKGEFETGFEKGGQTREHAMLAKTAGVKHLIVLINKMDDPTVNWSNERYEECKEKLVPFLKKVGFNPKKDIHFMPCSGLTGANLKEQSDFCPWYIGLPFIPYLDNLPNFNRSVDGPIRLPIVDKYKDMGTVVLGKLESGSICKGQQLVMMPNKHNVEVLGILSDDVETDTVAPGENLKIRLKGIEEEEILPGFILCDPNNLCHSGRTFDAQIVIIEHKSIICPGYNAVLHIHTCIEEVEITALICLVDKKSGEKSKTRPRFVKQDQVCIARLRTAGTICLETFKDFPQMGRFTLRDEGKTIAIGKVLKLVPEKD
Sequence of GSPT1 (Q96SW2 whole entry, the tested form may be a part): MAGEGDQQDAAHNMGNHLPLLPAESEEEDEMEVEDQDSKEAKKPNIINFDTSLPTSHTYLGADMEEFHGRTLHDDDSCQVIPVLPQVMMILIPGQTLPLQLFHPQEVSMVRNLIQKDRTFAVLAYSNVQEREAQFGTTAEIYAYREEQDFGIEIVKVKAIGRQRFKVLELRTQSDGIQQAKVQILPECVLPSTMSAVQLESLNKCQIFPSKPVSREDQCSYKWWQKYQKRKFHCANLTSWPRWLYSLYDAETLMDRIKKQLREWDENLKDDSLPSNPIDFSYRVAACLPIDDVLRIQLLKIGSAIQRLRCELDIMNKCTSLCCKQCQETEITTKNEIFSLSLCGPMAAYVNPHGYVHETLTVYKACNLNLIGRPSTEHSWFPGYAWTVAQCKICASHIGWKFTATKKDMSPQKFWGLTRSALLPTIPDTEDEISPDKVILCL
Sequence of GSPT1 (Q16531 whole entry partner, the tested form may be a part): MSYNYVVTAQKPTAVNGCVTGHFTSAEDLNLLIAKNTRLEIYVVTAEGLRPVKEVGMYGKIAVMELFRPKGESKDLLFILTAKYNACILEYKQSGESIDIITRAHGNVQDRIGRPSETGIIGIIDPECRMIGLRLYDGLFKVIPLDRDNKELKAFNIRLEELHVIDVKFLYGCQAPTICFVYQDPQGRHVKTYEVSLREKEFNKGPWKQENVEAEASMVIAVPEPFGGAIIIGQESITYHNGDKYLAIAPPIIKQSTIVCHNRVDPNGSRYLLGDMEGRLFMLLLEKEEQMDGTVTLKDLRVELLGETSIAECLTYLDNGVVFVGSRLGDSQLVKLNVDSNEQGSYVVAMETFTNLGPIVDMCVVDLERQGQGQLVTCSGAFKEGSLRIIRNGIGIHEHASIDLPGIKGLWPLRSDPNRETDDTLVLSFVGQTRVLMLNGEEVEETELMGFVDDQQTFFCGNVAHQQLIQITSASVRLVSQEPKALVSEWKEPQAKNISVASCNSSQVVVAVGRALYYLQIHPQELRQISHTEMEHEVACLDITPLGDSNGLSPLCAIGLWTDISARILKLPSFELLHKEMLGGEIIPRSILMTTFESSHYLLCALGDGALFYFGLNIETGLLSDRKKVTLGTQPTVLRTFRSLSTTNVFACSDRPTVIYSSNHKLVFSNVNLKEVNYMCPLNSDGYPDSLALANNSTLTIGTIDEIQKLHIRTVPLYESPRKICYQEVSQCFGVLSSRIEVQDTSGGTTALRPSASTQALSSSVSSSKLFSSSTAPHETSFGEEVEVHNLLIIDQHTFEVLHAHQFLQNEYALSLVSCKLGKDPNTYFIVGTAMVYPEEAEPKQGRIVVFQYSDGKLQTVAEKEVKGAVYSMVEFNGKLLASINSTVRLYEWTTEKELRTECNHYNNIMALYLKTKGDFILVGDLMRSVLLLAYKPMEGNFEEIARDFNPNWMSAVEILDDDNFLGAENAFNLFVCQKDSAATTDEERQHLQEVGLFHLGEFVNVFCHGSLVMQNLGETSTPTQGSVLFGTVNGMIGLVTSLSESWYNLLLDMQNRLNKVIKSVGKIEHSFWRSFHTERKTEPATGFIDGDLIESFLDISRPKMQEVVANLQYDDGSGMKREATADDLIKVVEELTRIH
Sequence of Cyclin E1 (P24864 whole entry): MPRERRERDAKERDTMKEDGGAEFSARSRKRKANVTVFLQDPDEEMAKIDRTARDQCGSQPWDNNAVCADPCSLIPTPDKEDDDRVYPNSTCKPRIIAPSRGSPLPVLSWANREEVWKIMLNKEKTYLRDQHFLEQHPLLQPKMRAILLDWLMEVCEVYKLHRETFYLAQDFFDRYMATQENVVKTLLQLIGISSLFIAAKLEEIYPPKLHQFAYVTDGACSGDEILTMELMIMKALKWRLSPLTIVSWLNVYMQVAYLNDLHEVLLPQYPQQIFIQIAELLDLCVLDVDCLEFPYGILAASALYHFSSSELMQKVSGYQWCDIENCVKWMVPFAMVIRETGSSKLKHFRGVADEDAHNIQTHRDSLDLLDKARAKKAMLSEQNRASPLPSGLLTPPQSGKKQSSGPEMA
Sequence of Cyclin E1 (Q96SW2 whole entry): as the sequence (Q96SW2 whole entry, the tested form may be a part) above
Sequence of Cyclin E1 (Q16531 whole entry partner): as the sequence (Q16531 whole entry partner, the tested form may be a part) above

SMILES | IC50 (Phospho-Rb (Ser807/811)) | DC50 (Cyclin E1) | Dmax (Cyclin E1) | Ratio of GSPT1 DC50/Cyclin E1 DC50 (Cyclin E1) | DC50 (GSPT1) | Dmax (GSPT1) | Emax (Phospho-Rb (Ser807/811))
COc1c(COC(=O)Nc2ccc(Oc3ccccc3C)cc2)ccc2c1C(=O)N(C1CCC(=O)NC1=O)C2 (stereo not shown) [Example 101, [2-(2,6-dioxopiperidin-3-yl)-4-methoxy-3-oxo-2,3-dihydro-1H-isoindol-5-yl]methyl N-[4-(2-methylphenoxy)phenyl]carbamate] | 0.061 µM | 0.072 µM | 108% | >194 | > 14 µM | 18% | 111%
COc1cc(Oc2cc(F)c(F)cc2Cl)ccc1NC(=O)OCc1ccc2c(c1OC)C(=O)N(C1CCC(=O)NC1=O)C2 (stereo not shown) [Example 108, [2-(2,6-dioxopiperidin-3-yl)-4-methoxy-3-oxo-2,3-dihydro-1H-isoindol-5-yl]methyl N-[4-(2-chloro-4,5-difluorophenoxy)-2-methoxyphenyl]carbamate] | 0.111 µM | 0.099 µM | 106% | >142 | > 14 µM | 24% | 112%
O=C1CCC(N2Cc3ccc(COC(=O)Nc4ccc(Oc5ccc(F)c(F)c5)cc4)c(O[C@@H]4CCCOC4)c3C2=O)C(=O)N1 (stereo partly drawn) [Example 141, [2-(2,6-dioxopiperidin-3-yl)-4-[(3R)-oxan-3-yloxy]-3-oxo-2,3-dihydro-1H-isoindol-5-yl]methyl N-[4-(3,4-difluorophenoxy)phenyl]carbamate] | 0.055 µM | 0.034 µM | 112% | >418 | > 14 µM | 9% | 136%
O=C1CCC(N2Cc3ccc(COC(=O)Nc4ccc(Oc5cc(F)c(F)c(F)c5)cc4F)c(O[C@@H]4CCCOC4)c3C2=O)C(=O)N1 (stereo partly drawn) [Example 150, [2-(2,6-dioxopiperidin-3-yl)-4-[(3R)-oxan-3-yloxy]-3-oxo-2,3-dihydro-1H-isoindol-5-yl]methyl N-[2-fluoro-4-(3,4,5-trifluorophenoxy)phenyl]carbamate] | 0.096 µM | 0.182 µM | 100% | >77 | > 14 µM | 0% | 137%

Continued by falling IC50 (Phospho-Rb (Ser807/811)), values first:

IC50 (Phospho-Rb (Ser807/811)) | DC50 (Cyclin E1) | Dmax (Cyclin E1) | Ratio of GSPT1 DC50/Cyclin E1 DC50 (Cyclin E1) | DC50 (GSPT1) | Dmax (GSPT1) | SMILES | Emax (Phospho-Rb (Ser807/811))
0.412 µM | 0.157 µM | 104% | >89 | > 14 µM | 22% | O=C1CCC(N2Cc3ccc(COC(=O)Nc4ccc(Oc5ccc(F)c(F)c5)cc4)c(OC(F)F)c3C2=O)C(=O)N1 (stereo not shown) [Example 61, [4-(difluoromethoxy)-2-(2,6-dioxopiperidin-3-yl)-3-oxo-2,3-dihydro-1H-isoindol-5-yl]methyl N-[4-(3,4-difluorophenoxy)phenyl]carbamate] | 107%
0.278 µM | 0.055 µM | 113% | >254 | > 14 µM | 7% | COc1c(COC(=O)Nc2ccc(Oc3cc(F)cc(F)c3)cc2)ccc2c1C(=O)N(C1CCC(=O)NC1=O)C2 (stereo not shown) [Example 13, [2-(2,6-dioxopiperidin-3-yl)-4-methoxy-3-oxo-2,3-dihydro-1H-isoindol-5-yl]methyl N-[4-(3,5-difluorophenoxy)phenyl]carbamate] | 97%
0.163 µM | 0.284 µM | 113% | >49 | > 14 µM | 32% | COc1c(COC(=O)Nc2ccc(Oc3cc(F)c(F)c(F)c3)cc2)ccc2c1C(=O)N(C1CCC(=O)NC1=O)C2 (stereo not shown) [Example 77, [2-(2,6-dioxopiperidin-3-yl)-4-methoxy-3-oxo-2,3-dihydro-1H-isoindol-5-yl]methyl N-[4-(3,4,5-trifluorophenoxy)phenyl]carbamate] | 94%
